According to patent publication US12331051B2 (priority 2021, dated 2025):

Tests used:
[1] = target: T1, Alpha 2B adrenergic receptor (Homo sapiens, UniProt P18089); experiment: Radioligand binding, cell membrane homogenates
T1 construct: expressed in transfected cells; host or cells: HEK-293
T1 sequence (P18089 1-450): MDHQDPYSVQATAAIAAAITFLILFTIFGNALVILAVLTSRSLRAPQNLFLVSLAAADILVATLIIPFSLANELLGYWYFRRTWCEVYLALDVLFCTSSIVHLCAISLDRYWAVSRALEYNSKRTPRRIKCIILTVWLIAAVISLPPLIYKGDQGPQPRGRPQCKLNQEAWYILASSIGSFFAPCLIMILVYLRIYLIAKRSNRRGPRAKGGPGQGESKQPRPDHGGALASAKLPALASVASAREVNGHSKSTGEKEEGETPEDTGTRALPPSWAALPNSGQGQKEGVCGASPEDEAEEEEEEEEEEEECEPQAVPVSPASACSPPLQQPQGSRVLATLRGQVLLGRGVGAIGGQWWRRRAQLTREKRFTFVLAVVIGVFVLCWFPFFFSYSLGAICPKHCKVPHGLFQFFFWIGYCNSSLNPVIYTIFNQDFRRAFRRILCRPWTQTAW
Procedure: (§1) Neuro-receptor binding and functional effects of the “E559 polymorph” was examined by analyzing binding affinity [Ki (nM)], functional agonist activity [EC50 (nM)], and functional antagonist activity [IC50 (nM)] against a panel of key receptors in neurophysiological disorders. Binding and functional assays were performed at “E559 polymorph” concentrations of 0.0003, 0.003, 0.01, 0.03, 0.1, 0.3, 1, and 10 μM. In binding assays, cell membrane homogenates, expressing each receptor target, were incubated with the corresponding radio-ligand in absence or presence of several concentration of the “E559 polymorph” compound. The measurement of binding affinity of the “E559 polymorph” is represented in TABLE XIII by Ki (nM) which was calculated as percent inhibition of the binding of a radioactively labeled reference ligand at each receptor. In functional assays the HEK-293 cells expressing each receptor target were suspended in buffer and distribute in microplates and incubated for 30 minutes at room temperature or 37° C. in the presence of buffer alone (basal control), the reference agonist or antagonist, or the “E559 polymorph. Following incubation, the cells were lysed and the appropriate fluorescent probe (Ca2+ flux, cAMP, or IP1) were added for 60 minutes to measure the fluorescence transfer at the appropriate wavelength using a microplate reader. The cellular agonist effect (EC50) was calculated as a percent of control response to a known reference agonist and the cellular antagonist effect (IC50) was calculated as a percent inhibition of control reference agonist response for each receptor.

D2S dopamine receptor [2] = target: T2, D2S dopamine receptor (Homo sapiens, UniProt P14416); experiment: Radioligand binding, cell membrane homogenates
T2 construct: expressed in transfected cells; host or cells: HEK-293
T2 sequence (P14416 1-414 isoform P14416-2): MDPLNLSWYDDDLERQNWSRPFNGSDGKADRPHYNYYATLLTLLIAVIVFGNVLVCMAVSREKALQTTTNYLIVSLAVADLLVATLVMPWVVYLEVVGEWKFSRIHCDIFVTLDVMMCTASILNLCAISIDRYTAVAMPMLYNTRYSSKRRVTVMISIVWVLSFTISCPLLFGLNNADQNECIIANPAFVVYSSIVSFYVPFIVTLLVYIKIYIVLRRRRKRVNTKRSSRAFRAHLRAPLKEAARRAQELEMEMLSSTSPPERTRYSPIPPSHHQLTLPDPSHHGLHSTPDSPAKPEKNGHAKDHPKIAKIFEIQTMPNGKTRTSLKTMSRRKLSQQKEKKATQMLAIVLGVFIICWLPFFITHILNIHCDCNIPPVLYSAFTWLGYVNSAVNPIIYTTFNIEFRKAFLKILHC
Procedure: as §1

[3] = target: T1, Alpha 2B adrenergic receptor; experiment: Functional assay in HEK-293 cells (cAMP); format: cell-based
Procedure: as §1

[4] = target: T3, Alpha 2C adrenergic receptor (Homo sapiens, UniProt P18825); experiment: Functional assay in HEK-293 cells (cAMP); format: cell-based
T3 construct: expressed in transfected cells; host or cells: HEK-293
T3 sequence (P18825 1-462): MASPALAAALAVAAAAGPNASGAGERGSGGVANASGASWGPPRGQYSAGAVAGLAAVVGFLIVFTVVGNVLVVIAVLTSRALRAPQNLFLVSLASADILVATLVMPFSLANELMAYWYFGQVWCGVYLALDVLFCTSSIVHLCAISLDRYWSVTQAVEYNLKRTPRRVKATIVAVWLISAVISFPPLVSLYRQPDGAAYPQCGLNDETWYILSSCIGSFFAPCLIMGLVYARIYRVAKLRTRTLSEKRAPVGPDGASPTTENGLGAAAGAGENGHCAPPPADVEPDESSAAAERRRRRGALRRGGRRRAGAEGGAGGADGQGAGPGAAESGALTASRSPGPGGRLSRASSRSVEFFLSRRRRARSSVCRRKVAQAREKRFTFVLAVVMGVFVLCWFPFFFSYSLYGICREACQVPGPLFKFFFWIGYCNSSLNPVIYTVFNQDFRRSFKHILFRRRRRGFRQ
Procedure: as §1

[5] = target: T4, Beta 1 adrenergic receptor (Homo sapiens, UniProt P08588); experiment: Functional assay in HEK-293 cells (cAMP); format: cell-based
T4 construct: expressed in transfected cells; host or cells: HEK-293
T4 sequence (P08588 whole entry): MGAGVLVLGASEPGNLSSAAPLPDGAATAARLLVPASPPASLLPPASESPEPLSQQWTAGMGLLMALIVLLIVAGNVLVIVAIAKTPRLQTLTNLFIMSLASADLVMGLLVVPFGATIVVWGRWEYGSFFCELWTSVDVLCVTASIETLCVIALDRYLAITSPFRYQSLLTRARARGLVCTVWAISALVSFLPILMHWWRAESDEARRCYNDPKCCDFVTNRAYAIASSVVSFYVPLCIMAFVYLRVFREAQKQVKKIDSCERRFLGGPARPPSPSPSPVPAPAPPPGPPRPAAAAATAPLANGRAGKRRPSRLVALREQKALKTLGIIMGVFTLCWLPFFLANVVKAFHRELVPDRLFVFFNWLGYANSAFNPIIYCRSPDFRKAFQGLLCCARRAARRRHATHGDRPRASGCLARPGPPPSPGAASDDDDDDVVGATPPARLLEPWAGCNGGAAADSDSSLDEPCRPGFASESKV
Procedure: as §1

[6] = target: T5, Beta 2 adrenergic receptor (Homo sapiens, UniProt P07550); experiment: Functional assay in HEK-293 cells (cAMP); format: cell-based
T5 construct: expressed in transfected cells; host or cells: HEK-293
T5 sequence (P07550 whole entry): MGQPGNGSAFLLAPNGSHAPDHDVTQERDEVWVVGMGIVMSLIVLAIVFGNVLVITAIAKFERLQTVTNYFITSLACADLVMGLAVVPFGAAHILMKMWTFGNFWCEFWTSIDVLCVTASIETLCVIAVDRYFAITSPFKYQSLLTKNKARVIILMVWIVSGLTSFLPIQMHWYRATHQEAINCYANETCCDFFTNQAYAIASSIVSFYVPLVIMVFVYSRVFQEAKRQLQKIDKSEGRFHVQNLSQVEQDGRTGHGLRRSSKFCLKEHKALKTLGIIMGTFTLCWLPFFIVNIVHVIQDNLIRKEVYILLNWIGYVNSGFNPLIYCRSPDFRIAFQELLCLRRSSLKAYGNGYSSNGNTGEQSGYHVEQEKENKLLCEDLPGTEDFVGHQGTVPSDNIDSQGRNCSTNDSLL
Procedure: as §1

D2S dopamine receptor [7] = target: T2, D2S dopamine receptor; experiment: Functional assay in HEK-293 cells (cAMP); format: cell-based
Procedure: as §1

[8] = target: T6, Serotonin 7 receptor (5-HT7R) (Homo sapiens, UniProt P34969); experiment: Functional assay in HEK-293 cells (cAMP); format: cell-based
T6 construct: expressed in transfected cells; host or cells: HEK-293
T6 sequence (P34969 whole entry): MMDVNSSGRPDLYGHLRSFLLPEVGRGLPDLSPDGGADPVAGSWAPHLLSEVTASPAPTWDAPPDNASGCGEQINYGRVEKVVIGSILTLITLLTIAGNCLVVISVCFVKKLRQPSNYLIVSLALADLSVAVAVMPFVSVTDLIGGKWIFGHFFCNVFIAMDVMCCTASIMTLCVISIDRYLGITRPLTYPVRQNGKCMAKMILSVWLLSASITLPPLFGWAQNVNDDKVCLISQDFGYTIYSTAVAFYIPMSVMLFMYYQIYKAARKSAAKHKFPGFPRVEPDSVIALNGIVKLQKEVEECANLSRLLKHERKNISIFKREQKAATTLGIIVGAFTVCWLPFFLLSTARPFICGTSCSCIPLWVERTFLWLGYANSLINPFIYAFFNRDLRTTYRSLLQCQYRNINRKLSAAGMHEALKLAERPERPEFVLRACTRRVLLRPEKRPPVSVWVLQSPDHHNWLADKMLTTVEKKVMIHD
Procedure: as §1

[9] = target: ADRa1B (α1B adrenergic receptor) (Homo sapiens, UniProt P35368); experiment: BRET-based G protein dissociation assay; format: cell-based
Chain of ADRa1B (α1B adrenergic receptor) (P35368 whole entry): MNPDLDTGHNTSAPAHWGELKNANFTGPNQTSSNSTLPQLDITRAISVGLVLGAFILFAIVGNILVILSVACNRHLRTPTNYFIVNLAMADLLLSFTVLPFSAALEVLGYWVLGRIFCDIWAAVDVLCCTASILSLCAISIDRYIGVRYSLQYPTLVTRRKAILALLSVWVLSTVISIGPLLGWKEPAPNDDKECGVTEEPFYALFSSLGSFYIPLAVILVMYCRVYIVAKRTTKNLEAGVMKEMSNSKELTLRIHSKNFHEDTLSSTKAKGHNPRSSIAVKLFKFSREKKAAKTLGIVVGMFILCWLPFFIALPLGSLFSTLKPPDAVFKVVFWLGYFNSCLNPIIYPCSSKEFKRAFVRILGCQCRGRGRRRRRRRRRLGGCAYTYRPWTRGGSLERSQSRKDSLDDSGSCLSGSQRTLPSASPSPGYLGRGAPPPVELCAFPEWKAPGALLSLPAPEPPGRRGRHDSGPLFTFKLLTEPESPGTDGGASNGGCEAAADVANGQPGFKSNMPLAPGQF

5-HT1E = target: T7, 5-HT1E (Homo sapiens, UniProt P28566); experiment: Functional assay (Arrestin); format: cell-based
T7 construct: expressed in transfected cells; host or cells: HEK-293
T7 sequence (P28566 whole entry): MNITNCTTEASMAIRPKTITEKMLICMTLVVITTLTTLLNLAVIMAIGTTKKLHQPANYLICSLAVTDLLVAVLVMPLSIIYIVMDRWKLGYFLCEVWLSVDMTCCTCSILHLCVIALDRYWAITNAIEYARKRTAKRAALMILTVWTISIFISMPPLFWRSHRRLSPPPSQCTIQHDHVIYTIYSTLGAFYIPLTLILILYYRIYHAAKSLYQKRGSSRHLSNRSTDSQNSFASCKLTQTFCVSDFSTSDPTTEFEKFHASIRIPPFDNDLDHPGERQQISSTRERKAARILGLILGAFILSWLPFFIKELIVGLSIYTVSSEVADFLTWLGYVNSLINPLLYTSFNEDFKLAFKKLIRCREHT

stress naive mice = experiment: Forced swim test (FST), stress naive mice; format: in vivo, mouse
Procedure: In brief, stress naive mice were treated (IP injection) with either saline (control) or single dose of the “E559 polymorph” at 0.3, 1, or 3 mg/kg dose levels and were evaluated 24 hours (OFT) and […] after treatment. The OFT was performed described in Example 13. The FST was performed as previously described in (Aguilar-Valles et al., Nature, 2021, 590, p315-319). Briefly FST was performed 24-hour post treatment by placing the mice (one by one) in a 4-liter wide-mouthed flask of 35° C. water. Mice activities were recorded for 6 minutes and assessed for total time the animal remains immobile, a sign of depressive-like behavior. FIG. 25A depicts the study design where female/male mice (n=10/group/sex) were treated by IP injection with the “E559 polymorph” or vehicle (saline) followed by open field and force swim test 24 hours post treatment. FIGS. 25B and 25E represent the total distance travelled in the open field test 24 hours after vehicle or the “E559 polymorph” in female and male mice, respectively. FIGS. 25C and 25F represent the time in the center of the open field by female and male mice, respectively. FIGS. 25D and 25G represent the immobility time during the last 4 minutes of the forced swim test in female and male mice, respectively. Horizontal lines represent the mean±standard error of the mean (S.E.M.) and asterisks indicate statistical significances.

SMILES: CCN(CC)C(=O)[C@@H]1C=C2c3cccc4[nH]c(Br)c(c34)C[C@H]2N(C)C1 [E559, (5R, 8R)-2-Bromo-9,10-didehydro-N,N-diethyl-6-methylergoline-8-carboxamide hemi-D-tartrate]
- Ki [1]: 0.027 µM
- Ki (D2S dopamine receptor [2]): 0.0021 µM
- EC50 [3]: > 10 µM
- IC50 [3]: 3.6 µM
- EC50 [4]: 0.73 µM
- IC50 [4]: > 10 µM
- EC50 [5]: > 10 µM
- IC50 [5]: 0.87 µM
- EC50 [6]: > 10 µM
- IC50 [6]: 0.36 µM
- EC50 (D2S dopamine receptor [7]): > 10 µM
- IC50 (D2S dopamine receptor [7]): > 10 µM
- EC50 [8]: > 10 µM
- IC50 [8]: 0.24 µM
- Kb [9]: 0.0559 µM
- EC50 (5-HT1E): > 10 µM
- Emax (5-HT1E; Arrestin, ligand 5-HT, read-out: Functional Assay (agonist) Emax): 8.7%
- decrease in immobility (stress naive mice; female mice, IP 1 mg/kg): 35.18 ± 10.03 s
- decrease in immobility (stress naive mice; male mice, IP 1 mg/kg): 27.27 ± 8.226 s
- decrease in immobility (stress naive mice; male mice, IP 3 mg/kg): 31.36 ± 8.226 s
